Molecules are shown by their SMILES. Activity calls are given as the source filed them. The rule behind the calls is not given here.

The IC50 is the concentration that inhibits the measured activity by half. For orientation: Ki means a dissociation constant, usually derived from enzyme kinetics or from competition with a known ligand.

The target of series [1] is Urease subunit alpha/Urease subunit beta (Helicobacter pylori (strain ATCC 700392 / 26695) (Campylobacterpylori), UniProt P69996). Put plainly: (§1) Inhibition of Helicobacter pylori urease using urea as substrate assessed as decrease in ammonia production incubated for 0.5 hrs by indole phenol method. It is filed as protein-complex assay.
Urease subunit alpha/Urease subunit beta, sequence (P69996 whole entry): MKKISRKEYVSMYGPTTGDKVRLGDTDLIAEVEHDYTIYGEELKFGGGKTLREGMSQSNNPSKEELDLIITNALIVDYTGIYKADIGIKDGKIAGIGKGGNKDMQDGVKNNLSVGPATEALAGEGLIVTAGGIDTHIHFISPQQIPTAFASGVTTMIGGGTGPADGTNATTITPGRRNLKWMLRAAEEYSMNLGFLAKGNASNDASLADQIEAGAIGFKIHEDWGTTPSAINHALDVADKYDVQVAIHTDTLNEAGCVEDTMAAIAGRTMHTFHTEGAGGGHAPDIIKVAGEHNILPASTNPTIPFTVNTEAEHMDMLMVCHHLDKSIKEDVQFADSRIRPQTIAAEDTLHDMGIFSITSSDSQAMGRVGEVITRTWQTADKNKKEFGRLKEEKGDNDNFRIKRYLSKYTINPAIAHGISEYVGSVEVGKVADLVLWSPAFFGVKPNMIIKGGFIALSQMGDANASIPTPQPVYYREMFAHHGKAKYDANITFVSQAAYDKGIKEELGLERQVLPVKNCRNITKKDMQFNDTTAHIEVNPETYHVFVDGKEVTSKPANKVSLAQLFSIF
Urease subunit alpha/Urease subunit beta, sequence (P14916 whole entry, further chain): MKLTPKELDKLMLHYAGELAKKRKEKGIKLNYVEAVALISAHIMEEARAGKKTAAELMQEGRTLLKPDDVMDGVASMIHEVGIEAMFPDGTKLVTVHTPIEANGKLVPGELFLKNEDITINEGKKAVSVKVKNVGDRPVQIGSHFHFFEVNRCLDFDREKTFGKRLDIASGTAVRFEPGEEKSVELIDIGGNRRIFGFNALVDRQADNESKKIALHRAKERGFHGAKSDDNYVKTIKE
Series [2] in a line: Cytotoxicity against human SGC-7901 cells assessed as cell viability at 250 ug/ml incubated for 72 hrs by CCK8 assay relative to control. The following applies: at 250 µg/mL, read-out: Activity. It is filed as toxicity, cell-based. On the technique in general: Formazan colour is commonly taken as a measure of viable cells.
A short description of series [3]: Cytotoxicity against human K562 cells assessed as cell viability at 250 ug/ml incubated for 72 hrs by CCK8 assay relative to control. The format is toxicity, cell-based. The following applies: at 250 µg/mL, read-out: Activity.
Series [4] is described as follows: Cytotoxicity against human L02 cells assessed as cell viability at 250 ug/ml incubated for 72 hrs by CCK8 assay relative to control. The following applies: at 250 µg/mL, read-out: Activity. The format is toxicity, cell-based.
Series [5] is described as follows: Cytotoxicity against human HepG2 cells assessed as cell viability at 250 ug/ml incubated for 72 hrs by CCK8 assay relative to control. The format is toxicity, cell-based. The following applies: at 250 µg/mL, read-out: Activity.
Series [6] deals with T1, Urease subunit alpha/Urease subunit beta (Helicobacter pylori (strain ATCC 700392 / 26695) (Campylobacterpylori)) (UniProt P69996+P14916). The description is as §1. It is filed as protein-complex assay.
T1 sequence (P14916 whole entry, looked up): as the sequence (P14916 whole entry, further chain) above
T1 sequence (P69996 whole entry, looked up): as the sequence (P69996 whole entry) above
For series [7], the target named is T1, Urease subunit alpha/Urease subunit beta (Helicobacter pylori (strain ATCC 700392 / 26695) (Campylobacterpylori)). Put plainly: Inhibition of urease using urea as substrate assessed as decrease in ammonia production at 800 ug/ml preincubated for 100 min by indole phenol method. It is filed as protein-complex assay. To be noted: dose 800.0 µg/ml.
For series [8] the target is unchanged. In words: Inhibition of urease using urea as substrate assessed as decrease in ammonia production at 800 ug/ml by indole phenol method. It is filed as protein-complex assay. The following applies: dose 800.0 µg/ml, time <= 120.0 min.

Consider `Cc1ccccc1N1CC(c2n[nH]c(=O)o2)OC1=O` (configuration not stated), for which the IC50 in series [1] came to 186 µM.
On the same count and under the same terms, under `CCc1ccccc1NCC(O)c1n[nH]c(=O)[nH]1` (configuration not stated) stands 62.6 µM; under `CCOc1ccc(N2CC(c3n[nH]c(=O)o3)OC2=O)cc1` (configuration not stated), 116 µM.
As to `O=C1OC(c2n[nH]c(=O)o2)CN1c1cccc(OCc2ccccc2)c1` (configuration not stated), the viability at 72 h, 250 ug/ml is 87.6% in series [2], 90.7% in series [3], 98.8% in series [4] and 92.4% in series [5]. Besides, the IC50 in series [1] is 20.7 µM.
As for `CCc1ccc(N2CC(Cc3n[nH]c(=O)o3)OC2=O)cc1` (configuration not stated), in series [1], the IC50 was found to be 46.1 µM.
As to `Cc1cccc(N2CC(c3n[nH]c(=O)o3)OC2=O)c1` (configuration not stated), the inhibition entry in series [6] is “inactive”.
For `CCc1cccc(NCC(O)c2n[nH]c(=O)[nH]2)c1` (configuration not stated), in series [1], the IC50 was determined as 90.5 µM.
For the compound `COc1cccc(N2CC(c3n[nH]c(=O)o3)OC2=O)c1` (configuration not stated), the IC50 in series [1] was 108 µM.
As to `CC(C)c1ccc(N2CC(Cc3n[nH]c(=O)o3)OC2=O)cc1` (configuration not stated), the viability at 72 h, 250 ug/ml was 90.7% in series [2], 88.9% in series [3], 96.2% in series [4] and 89.3% in series [5]. Also, the IC50 in series [1] was 24.6 µM.
On to `O=C1OC(Cc2n[nH]c(=O)o2)CN1c1ccccc1` (configuration not stated), for which the IC50 in series [1] came to 65.2 µM.
On the same count and under the same terms, under `Cc1ccc(NCC(O)c2n[nH]c(=O)[nH]2)c(C)c1` (configuration not stated) stands 87.5 µM; under `O=C1OC(c2n[nH]c(=O)o2)CN1c1ccc(OCc2ccccc2)cc1` (configuration not stated), 73.1 µM.
As to `O=c1[nH]nc(C(O)CNc2cccc(OCc3ccccc3)c2)[nH]1` (configuration not stated), the viability at 72 h, 250 ug/ml amounted to 93.4% in series [2], 91.6% in series [3], 95.4% in series [4] and 90.3% in series [5]. Further, in series [1], the IC50 turned out to be 6.31 µM. For the same compound, the Ki in series [1] amounted to 2.24 µM.
Regarding `Cc1cc(C)cc(N2CC(c3n[nH]c(=O)o3)OC2=O)c1` (configuration not stated), the inhibition entry in series [6] was “inactive”.
Still for that read-out and setting: under `O=C1OC(c2n[nH]c(=O)o2)CN1c1ccccc1` (configuration not stated) stands “inactive”.
In the case of `CCc1cccc(N2CC(c3n[nH]c(=O)o3)OC2=O)c1` (configuration not stated), the IC50 in series [1] is 151 µM.
For `Cc1ccccc1NCC(O)c1n[nH]c(=O)[nH]1` (configuration not stated), the IC50 in series [1] amounted to 93.5 µM.
As for `COc1ccc(NCC(O)c2n[nH]c(=O)[nH]2)cc1` (configuration not stated), the inhibition result in series [6] is “inactive”.
Consider `Cc1ccc(N2CC(c3n[nH]c(=O)o3)OC2=O)c(C)c1` (configuration not stated), for which, in series [1], the IC50 is 98.7 µM.
In the case of `COc1ccc(N2CC(c3n[nH]c(=O)o3)OC2=O)cc1` (configuration not stated), the inhibition result in series [6] was “inactive”.
Turning to `CCOc1ccccc1NCC(O)c1n[nH]c(=O)[nH]1` (configuration not stated), the IC50 in series [1] was 38.8 µM.
As to `O=c1[nH]nc(C(O)CNc2ccccc2)[nH]1` (configuration not stated), in series [1], the IC50 was 85.2 µM.
`COc1cccc(NCC(O)c2n[nH]c(=O)[nH]2)c1` (configuration not stated): the inhibition result in series [6] is “inactive”.
Consider `CCc1ccccc1N1CC(c2n[nH]c(=O)o2)OC1=O` (configuration not stated), for which the IC50 in series [1] amounted to 102 µM.
For the compound `Cc1ccc(N2CC(Cc3n[nH]c(=O)o3)OC2=O)cc1C` (configuration not stated), the inhibition result in series [6] is “inactive”.
Still for that read-out and setting: under `Cc1ccc(N2CC(c3n[nH]c(=O)o3)OC2=O)cc1` (configuration not stated) stands “inactive”.
For `CCc1ccc(N2CC(c3n[nH]c(=O)o3)OC2=O)cc1` (configuration not stated), the half-maximal inhibitory concentration (IC50) in series [1] was 162 µM.
Same read-out and setting: to `CC(C)(C)c1ccc(NCC(O)c2n[nH]c(=O)[nH]2)cc1` (configuration not stated) belongs 40.2 µM.
On to `O=C1OC(Cc2n[nH]c(=O)o2)CN1c1ccc(OCc2ccccc2)cc1` (configuration not stated), for which the IC50 in series [1] turned out to be 45.7 µM.
With `CCc1cccc(N2CC(Cc3n[nH]c(=O)o3)OC2=O)c1` (configuration not stated), the viability at 72 h, 250 ug/ml in series [2] came to 89.3%; in series [3], 95.3%; in series [4] it was 98.7%; in series [5], 93.1%. Besides, the IC50 in series [1] turned out to be 22.1 µM.
Regarding `Cc1cc(C)cc(N2CC(Cc3n[nH]c(=O)o3)OC2=O)c1` (configuration not stated), the viability at 72 h, 250 ug/ml in series [2] amounted to 92.5%; in series [3] it was 92.7%; in series [4], 98%; in series [5], 90.8%. Also, the IC50 in series [1] worked out at 10.1 µM. Also, the Ki in series [1] is 6.75 µM.
`Cc1cccc(NCC(O)c2n[nH]c(=O)[nH]2)c1` (configuration not stated): the IC50 in series [1] came to 108 µM.
Same read-out and setting: to `CC(C)c1ccc(NCC(O)c2n[nH]c(=O)[nH]2)cc1` (configuration not stated) belongs 51.4 µM; to `Cc1cccc(N2CC(Cc3n[nH]c(=O)o3)OC2=O)c1` (configuration not stated), 30.6 µM.
As to `O=C1OC(Cc2n[nH]c(=O)o2)CN1c1ccccc1OCc1ccccc1` (configuration not stated), the viability at 72 h, 250 ug/ml worked out at 94.6% in series [2], 93.8% in series [3], 96.5% in series [4] and 91.5% in series [5]. Moreover, the inhibition result in series [7] is “Active”. For the same compound, in series [1], the IC50 worked out at 1.21 µM. In addition, the Ki in series [1] was found to be 0.24 µM. Moreover, the inhibition entry in series [8] is “Dose-Dependent Effect”.
For the compound `Cc1cc(C)cc(NCC(O)c2n[nH]c(=O)[nH]2)c1` (configuration not stated), in series [1], the IC50 was determined as 30.7 µM.
`Cc1ccc(NCC(O)c2n[nH]c(=O)[nH]2)cc1` (configuration not stated): in series [6], the inhibition entry is “inactive”.
With `CC(C)(C)c1ccc(N2CC(Cc3n[nH]c(=O)o3)OC2=O)cc1` (configuration not stated), the IC50 in series [1] is 56.8 µM.
For `CCOc1ccc(N2CC(Cc3n[nH]c(=O)o3)OC2=O)cc1` (configuration not stated), the IC50 in series [1] came to 61.3 µM.
In the case of `O=C1OC(Cc2n[nH]c(=O)o2)CN1c1cccc(OCc2ccccc2)c1` (configuration not stated), the viability at 72 h, 250 ug/ml was 90.2% in series [2], 90.5% in series [3], 94.9% in series [4] and 94.2% in series [5]. Moreover, the IC50 in series [1] amounted to 19.1 µM.
On the same counts, the results for `O=c1[nH]nc(C(O)CNc2ccc(OCc3ccccc3)cc2)[nH]1` (configuration not stated) are 94.2%, 89.8%, 94.7%, 89.3% and 21.2 µM.
In the case of `CCc1ccc(NCC(O)c2n[nH]c(=O)[nH]2)cc1` (configuration not stated), in series [1], the IC50 came to 110 µM.
As for `Cc1ccc(N2CC(Cc3n[nH]c(=O)o3)OC2=O)cc1` (configuration not stated), the inhibition result in series [6] was “inactive”.
The same measure, in the same setting: under `COc1ccc(N2CC(Cc3n[nH]c(=O)o3)OC2=O)cc1` (configuration not stated) stands “inactive”.
In the case of `CCOc1ccc(NCC(O)c2n[nH]c(=O)[nH]2)cc1` (configuration not stated), in series [1], the IC50 worked out at 46.8 µM.
